pIC50: −log10 of the molar value. Like-named read-outs stand apart in the source and are kept apart here.
How the values were obtained:
MALT1 = target: T1, MALT1 (Homo sapiens, UniProt Q9UDY8); assay: MALT-1 Fluorogenic Peptide Cleavage Assay (MALT1 inhibition assay); format: biochemical; conditions: Avi-tagged FL MALT-1, Ac-LRSR-AMC peptide substrate, 30 min pre-incubation, 90 min reaction
T1 construct: Avi-tagged FL MALT-1 (Pharmaron, stored at −70° C.); Avi tag
T1 sequence (Q9UDY8 1-824): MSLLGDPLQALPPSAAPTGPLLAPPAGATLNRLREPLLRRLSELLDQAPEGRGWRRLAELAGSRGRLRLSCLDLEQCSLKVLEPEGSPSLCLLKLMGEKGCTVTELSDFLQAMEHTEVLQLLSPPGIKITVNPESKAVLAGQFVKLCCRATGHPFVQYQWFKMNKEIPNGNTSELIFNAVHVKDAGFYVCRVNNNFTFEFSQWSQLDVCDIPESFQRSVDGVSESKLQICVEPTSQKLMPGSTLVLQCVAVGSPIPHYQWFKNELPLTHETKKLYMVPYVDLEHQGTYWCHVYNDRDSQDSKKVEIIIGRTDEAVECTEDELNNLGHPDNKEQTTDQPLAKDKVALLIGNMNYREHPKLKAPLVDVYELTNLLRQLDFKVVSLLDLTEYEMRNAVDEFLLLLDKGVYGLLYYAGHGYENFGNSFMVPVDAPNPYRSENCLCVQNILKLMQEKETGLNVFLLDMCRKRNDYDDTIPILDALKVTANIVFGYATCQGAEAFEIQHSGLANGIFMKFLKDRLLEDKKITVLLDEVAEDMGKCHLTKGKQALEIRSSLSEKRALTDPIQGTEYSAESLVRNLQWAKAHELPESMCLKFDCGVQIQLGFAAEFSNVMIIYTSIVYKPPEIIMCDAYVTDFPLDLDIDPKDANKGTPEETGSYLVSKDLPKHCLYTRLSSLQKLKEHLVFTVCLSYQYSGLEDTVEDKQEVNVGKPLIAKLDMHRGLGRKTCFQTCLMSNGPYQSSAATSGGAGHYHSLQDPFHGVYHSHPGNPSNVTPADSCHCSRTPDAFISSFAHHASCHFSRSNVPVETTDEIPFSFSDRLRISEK
Method in brief: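 IC50 from sigmoidal fits of % inhibition, with fluorescence (ex 342, em 441 nm) from AMC released from the quenched LRSR peptide after 90 min at room temperature. Full-length Avi-tagged MALT1 saw compound for 30 min first; final DMSO 2%.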

NF-kB = NF-kB reporter assay in Jurkat cells stimulated with aCD3/aCD28/PMA; format: cell-based; conditions: Homo sapiens, Jurkat, read-out: NF-kB Reporter Assay IC50
Method in brief: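 Stimulation used final aCD3 5 μg/mL, aCD28 5 μg/mL and PMA 0.03 μg/mL for 4 hr at 37° C, after 1 hr compound pretreatment of 25,000 serum-starved Jurkat cells per well. One-Glo luminescence gave IC50 values.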

[1] = Jurkat cells, 1 hr compound incubation, aCD3/aCD28/PMA stimulation 4 hr, One-Glo readout

Compound | pIC50 (MALT1) | pIC50 (NF-kB; [1]) | pIC50 (NF-kB)
Cn1ncc2cccc(NS(=O)(=O)c3ccc(N4CCOC4=O)nc3)c21 [Example I-230, N-(1-Methyl-1H-Indazol-7-yl)-6-(2-Oxooxazolidin-3-yl)Pyridine-3-Sulfonamide] | < 5.60 | < 5.60 | –
COCCn1ncc2cccc(NS(=O)(=O)c3ccc(-n4ccc(C5CC5)n4)nc3)c21 [Example I-231, 6-(3-Cyclopropyl-1H-Pyrazol-1-yl)-N-(1-(2-Methoxyethyl)-1H-Indazol-7-yl)Pyridine-3-Sulfonamide] | < 5.60 | < 5.60 | –
COCCn1ncc2cccc(NS(=O)(=O)c3ccc(-n4nccc4C(C)C)nc3)c21 [Example I-232, 6-(5-isopropyl-1H-pyrazol-1-yl)-N-(1-(2-methoxyethyl)-1H-indazol-7-yl)pyridine-3-sulfonamide] | < 5.60 | < 5.60 | –
Cn1ncc2cccc(NS(=O)(=O)c3ccc(-n4cc5c(n4)CCCC5)nc3)c21 [Example I-233, N-(1-methyl-1H-indazol-7-yl)-6-(4,5,6,7-tetrahydro-2H-indazol-2-yl)pyridine-3-sulfonamide] | 6.00 to 6.40 | > 6.40 | –
Cn1c(-c2ccc(S(=O)(=O)Nc3cccc4cnn(C)c34)cn2)cnc1C(F)(F)F [Example I-234, 6-[3-methyl-2-(trifluoromethyl)imidazol-4-yl]-N-(1-methylindazol-7-yl)pyridine-3-sulfonamide] | < 5.60 | – | > 6.40
COc1ncc2cnn(C)c2c1NS(=O)(=O)c1ccc(N2C[C@@](O)(C(F)(F)F)CC2=O)nc1 [Example I-235, (R)-6-(4-hydroxy-2-oxo-4-(trifluoromethyl)pyrrolidin-1-yl)-N-(6-methoxy-1-methyl-1H-pyrazolo[4,3-c]pyridin-7-yl)pyridine-3-sulfonamide] | > 6.40 | 6.00 to 6.40 | –
COc1ncc2cnn(C)c2c1NS(=O)(=O)c1ccc(N2C[C@](O)(C(F)(F)F)CC2=O)nc1 [Example I-236, (S)-6-(4-hydroxy-2-oxo-4-(trifluoromethyl)pyrrolidin-1-yl)-N-(6-methoxy-1-methyl-1H-pyrazolo[4,3-c]pyridin-7-yl)pyridine-3-sulfonamide] | 6.00 to 6.40 | < 5.60 | –
COc1ccc2cnn(C)c2c1NS(=O)(=O)c1ccc(-n2cc(C)[nH]c2=O)nc1 [Example I-237, N-(6-methoxy-1-methyl-1H-indazol-7-yl)-6-(4-methyl-2-oxo-2,3-dihydro-1H-imidazol-1-yl)pyridine-3-sulfonamide] | > 6.40 | > 6.40 | –
CCOC(=O)c1cnn(-c2ccc(S(=O)(=O)Nc3c(OC)ccc4cnn(C)c34)cn2)c1C [Example I-238, ethyl 1-{5-[(6-methoxy-1-methylindazol-7-yl)sulfamoyl]pyridin-2-yl}-5-methylpyrazole-4-carboxylate] | > 6.40 | > 6.40 | –
COc1ccc2cnn(C)c2c1NS(=O)(=O)c1ccc(-c2nc(C)nn2C)nc1 [Example I-239, 6-(1,3-dimethyl-1H-1,2,4-triazol-5-yl)-N-(6-methoxy-1-methyl-1H-indazol-7-yl)pyridine-3-sulfonamide] | 5.60 to 6.00 | < 5.60 | –
COc1ccc2c(F)nn(C)c2c1NS(=O)(=O)c1ccc(-n2cc(Cl)cn2)nc1 [Example I-240, 6-(4-chloro-1H-pyrazol-1-yl)-N-(3-fluoro-6-methoxy-1-methyl-1H-indazol-7-yl)pyridine-3-sulfonamide] | > 6.40 | > 6.40 | –
Cn1ncc2cccc(NS(=O)(=O)c3ccc(-c4cnc(C(F)F)s4)nc3)c21 [Example I-241, 6-(2-(difluoromethyl)thiazol-5-yl)-N-(1-methyl-1H-indazol-7-yl)pyridine-3-sulfonamide] | 6.00 to 6.40 | – | > 6.40
COc1ccc2cnn(C)c2c1NS(=O)(=O)c1ccc(-n2ncc(CO)c2C)nc1 [Example I-242, 6-[4-(hydroxymethyl)-5-methylpyrazol-1-yl]-N-(6-methoxy-1-methylindazol-7-yl)pyridine-3-sulfonamide] | 6.00 to 6.40 | > 6.40 | –
COc1ncc(-c2ccc(S(=O)(=O)Nc3cccc4cnn(C)c34)cn2)s1 [Example I-243, 6-(2-methoxythiazol-5-yl)-N-(1-methyl-1H-indazol-7-yl)pyridine-3-sulfonamide] | < 5.60 | – | > 6.40
Cn1ncc2cccc(NS(=O)(=O)c3ccc(-c4cnc(N5CCOCC5)s4)nc3)c21 [Example I-244, N-(1-methyl-1H-indazol-7-yl)-6-(2-morpholinothiazol-5-yl)pyridine-3-sulfonamide] | < 5.60 | – | > 6.40
Cn1ncc2cccc(NS(=O)(=O)c3ccc(-n4ncc5c4CCOC5)nc3)c21 [Example I-245, N-(1-methylindazol-7-yl)-6-{4H,6H,7H-pyrano[4,3-c]pyrazol-1-yl}pyridine-3-sulfonamide] | < 5.60 | > 6.40 | –
CCOC(=O)c1cnn(-c2ccc(S(=O)(=O)Nc3cccc4cnn(C)c34)cn2)c1C [Example I-246, ethyl 5-methyl-1-(5-(N-(1-methyl-1H-indazol-7-yl)sulfamoyl)pyridin-2-yl)-1H-pyrazole-4-carboxylate] | < 5.60 | > 6.40 | –
Cn1ncc2cccc(NS(=O)(=O)c3ccc(-n4cc5c(n4)CCOC5)nc3)c21 [Example I-247, N-(1-methylindazol-7-yl)-6-{4H,6H,7H-pyrano[4,3-c]pyrazol-2-yl}pyridine-3-sulfonamide] | < 5.60 | > 6.40 | –
CN[C@@H]1CCCC[C@H]1N(C)c1ccc(S(=O)(=O)Nc2cccc3cnn(C)c23)cn1 [Example I-248, 6-{methyl[(1R,2R)-2-(methylamino)cyclohexyl]amino}-N-(1-methylindazol-7-yl)pyridine-3-sulfonamide] | < 5.60 | < 5.60 | –
COc1ccc2c(F)nn(C)c2c1NS(=O)(=O)c1ccc(-n2cc(C)cn2)nc1 [Example I-249, N-(3-fluoro-6-methoxy-1-methyl-1H-indazol-7-yl)-6-(4-methyl-1H-pyrazol-1-yl)pyridine-3-sulfonamide] | > 6.40 | – | 6.00 to 6.40
Cn1ncc2cccc(NS(=O)(=O)c3ccc(-c4cnc(Cl)s4)nc3)c21 [Example I-250, 6-(2-chlorothiazol-5-yl)-N-(1-methyl-1H-indazol-7-yl)pyridine-3-sulfonamide] | 5.60 to 6.00 | – | > 6.40
COC1(c2cnn(-c3ccc(S(=O)(=O)Nc4cccc5cnn(C)c45)cn3)c2)CC1 [Example I-251, 6-(4-(1-methoxycyclopropyl)-1H-pyrazol-1-yl)-N-(1-methyl-1H-indazol-7-yl)pyridine-3-sulfonamide] | < 5.60 | > 6.40 | –
Cc1c(CO)cnn1-c1ccc(S(=O)(=O)Nc2cccc3cnn(C)c23)cn1 [Example I-252, 6-[4-(hydroxymethyl)-5-methylpyrazol-1-yl]-N-(1-methylindazol-7-yl)pyridine-3-sulfonamide] | < 5.60 | > 6.40 | –
Cn1ncc2cccc(NS(=O)(=O)c3ccc(-c4cnn(C5COC5)c4)nc3)c21 [Example I-253, N-(1-methyl-1H-indazol-7-yl)-6-(1-(oxetan-3-yl)-1H-pyrazol-4-yl)pyridine-3-sulfonamide] | < 5.60 | 6.00 to 6.40 | –
Cc1nc(-c2ccc(S(=O)(=O)Nc3cccc4cnn(C)c34)cn2)cn1C(F)(F)F [Example I-264, 6-(2-methyl-1-(trifluoromethyl)-1H-imidazol-4-yl)-N-(1-methyl-1H-indazol-7-yl)pyridine-3-sulfonamide] | < 5.60 | > 6.40 | –
Cn1ncc2cccc(NS(=O)(=O)c3ccc(-c4cnc(C5CC5)s4)nc3)c21 [Example I-265, 6-(2-cyclopropyl-1,3-thiazol-5-yl)-N-(1-methylindazol-7-yl)pyridine-3-sulfonamide] | < 5.60 | > 6.40 | –
CC(C)c1ncc(-c2ccc(S(=O)(=O)Nc3cccc4cnn(C)c34)cn2)s1 [Example I-266, 6-(2-isopropyl-1,3-thiazol-5-yl)-N-(1-methylindazol-7-yl)pyridine-3-sulfonamide] | < 5.60 | – | > 6.40
Cn1ncc2cccc(NS(=O)(=O)c3ccc(-c4cnc(C(C)(C)O)s4)nc3)c21 [Example I-267, 6-[2-(2-hydroxypropan-2-yl)-1,3-thiazol-5-yl]-N-(1-methylindazol-7-yl)pyridine-3-sulfonamide] | < 5.60 | 6.00 to 6.40 | –

— patent US20240150365A1 (Hotspot Therapeutics, Inc., priority 2022, published 2024)
